Legend:
[1] = biological target: Bromodomain testis-specific protein (Homo sapiens, UniProt Q58F21); experiment: Binding affinity to human BRDT bromodomain 2 assessed as residual activity at 300 nM by BROMOscan method relative to control
[2] = biological target: E3 ubiquitin-protein ligase TRIM33 (Homo sapiens) (UniProt Q9UPN9); experiment: Binding affinity to human TRIM33 bromodomain assessed as residual activity at 300 nM by BROMOscan method relative to control
[3] = biological target: Histone acetyltransferase p300 (Homo sapiens, UniProt Q09472); experiment: Binding affinity to human EP300 bromodomain assessed as residual activity at 300 nM by BROMOscan method relative to control
[4] = biological target: Transcription initiation factor TFIID subunit 1 (Homo sapiens, UniProt P21675); experiment: Binding affinity to human TAF1 bromodomain 2 assessed as residual activity at 300 nM by BROMOscan method relative to control
[5] = biological target: SWI/SNF-related matrix-associated actin-dependent regulator of chromatin subfamily A member 2 (Homo sapiens, UniProt P51531); experiment: Binding affinity to human SMARCA2 bromodomain assessed as residual activity at 300 nM by BROMOscan method relative to control
[6] = tested on: EVSA-T; experiment: Antiproliferative activity against human EVSA-T cells expressing ATAD2 assessed as inhibition of colony formation at 0.01 to 10 uM measured after 14 to 21 days by AlamarBlue staining based colony formation assay; type: functional, cell-based; conditions: dose 0.01-10 µM, time 14-21 day
[7] = biological target: Chromatin remodeling regulator CECR2 (Homo sapiens, UniProt Q9BXF3); experiment: Binding affinity to human CECR2 bromodomain assessed as dissociation constant by BROMOscan method
[8] = biological target: Bromodomain-containing protein 2 (Homo sapiens, UniProt P25440); experiment: Binding affinity to human BRD2 bromodomain 1 assessed as residual activity at 300 nM by BROMOscan method relative to control
[9] = biological target: T1, Histone acetyltransferase KAT2B (Homo sapiens, UniProt Q92831); experiment: Binding affinity to human PCAF bromodomain assessed as dissociation constant by BROMOscan method
[10] = biological target: Nucleosome-remodeling factor subunit BPTF (Homo sapiens, UniProt Q12830); experiment: Binding affinity to human FALZ bromodomain assessed as residual activity at 300 nM by BROMOscan method relative to control
[11] = biological target: T2, ATPase family AAA domain-containing protein 2 (Homo sapiens, UniProt Q6PL18); experiment: Inhibition of GST-ATAD2 BD (951 to 1132 residues) (unknown origin) expressed in Escherichia coli BL21 (DE3) and biotinylated tetra-acetylated histone H4 peptides as substrate by TR-FRET artifact assay
T2 sequence (Q6PL18 whole entry): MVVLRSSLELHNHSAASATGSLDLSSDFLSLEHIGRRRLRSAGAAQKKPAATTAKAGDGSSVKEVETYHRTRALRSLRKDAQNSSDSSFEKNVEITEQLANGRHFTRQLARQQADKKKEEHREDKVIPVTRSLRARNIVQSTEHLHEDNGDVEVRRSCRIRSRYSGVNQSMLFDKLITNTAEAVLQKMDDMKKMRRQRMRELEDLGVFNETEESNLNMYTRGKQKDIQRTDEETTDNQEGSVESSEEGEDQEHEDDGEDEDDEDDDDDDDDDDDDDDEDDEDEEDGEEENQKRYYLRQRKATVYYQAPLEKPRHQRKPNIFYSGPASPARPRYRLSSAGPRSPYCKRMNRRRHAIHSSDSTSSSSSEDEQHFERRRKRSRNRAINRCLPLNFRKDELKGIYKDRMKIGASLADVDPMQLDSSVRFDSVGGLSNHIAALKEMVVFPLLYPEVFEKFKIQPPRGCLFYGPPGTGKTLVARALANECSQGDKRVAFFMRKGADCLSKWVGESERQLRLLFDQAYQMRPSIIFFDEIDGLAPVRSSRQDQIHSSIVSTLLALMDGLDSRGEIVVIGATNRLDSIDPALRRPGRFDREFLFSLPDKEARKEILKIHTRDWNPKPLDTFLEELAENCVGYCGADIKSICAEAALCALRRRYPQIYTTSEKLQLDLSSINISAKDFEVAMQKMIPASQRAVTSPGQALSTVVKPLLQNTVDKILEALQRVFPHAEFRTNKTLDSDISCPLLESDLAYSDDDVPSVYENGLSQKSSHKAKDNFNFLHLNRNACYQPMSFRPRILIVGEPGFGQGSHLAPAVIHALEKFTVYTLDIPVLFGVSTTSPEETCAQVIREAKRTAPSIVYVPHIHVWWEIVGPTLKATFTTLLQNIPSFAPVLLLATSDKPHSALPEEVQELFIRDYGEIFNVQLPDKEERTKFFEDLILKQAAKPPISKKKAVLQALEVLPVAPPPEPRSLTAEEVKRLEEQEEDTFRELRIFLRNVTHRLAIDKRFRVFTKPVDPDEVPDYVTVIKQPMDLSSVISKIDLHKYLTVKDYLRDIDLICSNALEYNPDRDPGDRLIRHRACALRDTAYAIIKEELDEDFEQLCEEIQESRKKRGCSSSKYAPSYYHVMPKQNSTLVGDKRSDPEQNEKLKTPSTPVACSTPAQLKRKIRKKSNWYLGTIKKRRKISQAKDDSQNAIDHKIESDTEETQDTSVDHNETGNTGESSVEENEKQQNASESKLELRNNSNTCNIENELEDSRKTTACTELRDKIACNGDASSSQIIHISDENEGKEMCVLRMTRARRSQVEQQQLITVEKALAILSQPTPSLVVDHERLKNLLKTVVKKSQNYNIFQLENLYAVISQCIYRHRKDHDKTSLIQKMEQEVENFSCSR

[12] = biological target: Bromodomain-containing protein 9 (Homo sapiens, UniProt Q9H8M2); experiment: Binding affinity to human BRD9 bromodomain by BROMOscan method
[13] = biological target: ATPase family AAA domain-containing protein 2B (Homo sapiens) (UniProt Q9ULI0); experiment: Binding affinity to human ATAD2B bromodomain assessed as residual activity at 300 nM by BROMOscan method relative to control
[14] = biological target: Bromodomain and WD repeat-containing protein 1 (Homo sapiens, UniProt Q9NSI6); experiment: Binding affinity to human WDR9 bromodomain 2 assessed as dissociation constant by BROMOscan method
[15] = biological target: Transcription intermediary factor 1-alpha (Homo sapiens) (UniProt O15164); experiment: Binding affinity to human TRIM24 bromodomain assessed as residual activity at 300 nM by BROMOscan method relative to control
[16] = biological target: T2, ATPase family AAA domain-containing protein 2; experiment: Displacement of Halo-tagged Histone H3.3 from Nanoluc-ATAD2 BD (962 to 1119 residues) (unknown origin) transfected in human HCT116 cells incubated for 18 hrs in presence of efflux inhibitor verapamil by NanoBRET assay; type: cell-based, HCT-116
[17] = biological target: T1, Histone acetyltransferase KAT2B; experiment: Binding affinity to human PCAF bromodomain assessed as residual activity at 300 nM by BROMOscan method relative to control
[18] = biological target: T2, ATPase family AAA domain-containing protein 2; experiment: Inhibition of GST-ATAD2 BD (951 to 1132 residues) (unknown origin) expressed in Escherichia coli BL21 (DE3) and biotinylated tetra-acetylated histone H4 peptides as substrate incubated for 30 mins by TR-FRET assay

Chain of Histone acetyltransferase p300 (Q09472 whole entry): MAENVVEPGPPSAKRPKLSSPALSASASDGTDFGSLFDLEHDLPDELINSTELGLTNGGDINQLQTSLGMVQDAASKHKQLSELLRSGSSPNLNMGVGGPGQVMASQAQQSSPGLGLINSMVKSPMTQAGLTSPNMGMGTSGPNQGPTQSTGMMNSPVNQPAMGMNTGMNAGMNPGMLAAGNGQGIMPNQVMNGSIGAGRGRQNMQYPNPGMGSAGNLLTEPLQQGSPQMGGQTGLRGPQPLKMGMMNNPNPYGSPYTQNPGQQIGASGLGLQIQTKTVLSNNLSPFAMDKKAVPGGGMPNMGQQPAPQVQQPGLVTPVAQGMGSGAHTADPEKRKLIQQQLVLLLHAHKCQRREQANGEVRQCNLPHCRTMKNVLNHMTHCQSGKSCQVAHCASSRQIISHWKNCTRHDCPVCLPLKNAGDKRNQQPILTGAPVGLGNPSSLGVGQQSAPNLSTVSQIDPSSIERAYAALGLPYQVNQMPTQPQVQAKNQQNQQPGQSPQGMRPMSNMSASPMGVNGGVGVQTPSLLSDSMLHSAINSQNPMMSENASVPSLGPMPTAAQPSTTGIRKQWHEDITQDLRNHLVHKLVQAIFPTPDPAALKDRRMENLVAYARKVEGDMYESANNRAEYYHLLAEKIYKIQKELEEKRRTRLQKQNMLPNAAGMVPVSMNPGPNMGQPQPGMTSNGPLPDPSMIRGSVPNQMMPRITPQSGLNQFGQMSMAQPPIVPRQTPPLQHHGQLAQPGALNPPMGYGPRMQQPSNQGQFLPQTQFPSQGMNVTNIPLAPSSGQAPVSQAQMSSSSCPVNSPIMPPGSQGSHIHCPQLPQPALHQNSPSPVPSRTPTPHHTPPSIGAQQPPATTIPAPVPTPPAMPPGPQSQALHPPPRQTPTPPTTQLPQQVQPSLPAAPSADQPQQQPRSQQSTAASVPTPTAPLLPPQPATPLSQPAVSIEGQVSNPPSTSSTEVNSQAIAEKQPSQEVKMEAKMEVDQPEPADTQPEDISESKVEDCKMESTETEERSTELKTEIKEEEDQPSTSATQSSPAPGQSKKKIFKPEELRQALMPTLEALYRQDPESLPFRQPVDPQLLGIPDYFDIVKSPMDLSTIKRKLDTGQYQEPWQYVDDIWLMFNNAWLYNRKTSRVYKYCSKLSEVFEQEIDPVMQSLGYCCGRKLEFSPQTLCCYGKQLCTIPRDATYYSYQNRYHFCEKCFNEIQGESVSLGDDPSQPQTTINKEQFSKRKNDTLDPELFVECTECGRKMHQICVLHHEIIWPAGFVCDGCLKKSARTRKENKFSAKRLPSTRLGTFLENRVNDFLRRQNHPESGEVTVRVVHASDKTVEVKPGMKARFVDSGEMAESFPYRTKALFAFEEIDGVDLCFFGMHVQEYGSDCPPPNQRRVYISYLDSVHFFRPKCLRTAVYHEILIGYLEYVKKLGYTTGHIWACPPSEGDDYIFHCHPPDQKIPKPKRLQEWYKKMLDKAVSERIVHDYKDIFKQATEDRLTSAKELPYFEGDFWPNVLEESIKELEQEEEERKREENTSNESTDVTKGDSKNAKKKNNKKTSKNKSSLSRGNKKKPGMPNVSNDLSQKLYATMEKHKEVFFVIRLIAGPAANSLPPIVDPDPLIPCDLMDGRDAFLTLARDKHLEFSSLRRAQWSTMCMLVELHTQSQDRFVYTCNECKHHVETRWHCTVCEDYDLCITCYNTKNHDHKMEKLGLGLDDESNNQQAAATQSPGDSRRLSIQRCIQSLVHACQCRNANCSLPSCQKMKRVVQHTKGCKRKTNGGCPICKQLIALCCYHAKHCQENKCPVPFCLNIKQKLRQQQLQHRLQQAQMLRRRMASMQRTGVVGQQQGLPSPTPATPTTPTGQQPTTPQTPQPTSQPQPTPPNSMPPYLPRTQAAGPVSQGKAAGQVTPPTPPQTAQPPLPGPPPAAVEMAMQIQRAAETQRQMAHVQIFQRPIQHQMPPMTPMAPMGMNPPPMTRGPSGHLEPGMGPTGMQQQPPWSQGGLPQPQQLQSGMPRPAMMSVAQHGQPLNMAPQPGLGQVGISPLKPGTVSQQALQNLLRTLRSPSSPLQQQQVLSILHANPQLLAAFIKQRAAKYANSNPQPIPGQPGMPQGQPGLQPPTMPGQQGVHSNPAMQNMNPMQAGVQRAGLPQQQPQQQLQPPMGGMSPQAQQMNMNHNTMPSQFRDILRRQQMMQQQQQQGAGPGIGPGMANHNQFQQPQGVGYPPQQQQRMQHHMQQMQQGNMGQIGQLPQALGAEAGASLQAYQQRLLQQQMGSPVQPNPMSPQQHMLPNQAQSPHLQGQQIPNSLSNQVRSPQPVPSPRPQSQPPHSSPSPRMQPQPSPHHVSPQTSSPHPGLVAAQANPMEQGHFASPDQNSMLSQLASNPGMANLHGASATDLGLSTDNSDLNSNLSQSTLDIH
Chain of ATPase family AAA domain-containing protein 2B (Homo sapiens) (Q9ULI0 whole entry, the tested form may be a part): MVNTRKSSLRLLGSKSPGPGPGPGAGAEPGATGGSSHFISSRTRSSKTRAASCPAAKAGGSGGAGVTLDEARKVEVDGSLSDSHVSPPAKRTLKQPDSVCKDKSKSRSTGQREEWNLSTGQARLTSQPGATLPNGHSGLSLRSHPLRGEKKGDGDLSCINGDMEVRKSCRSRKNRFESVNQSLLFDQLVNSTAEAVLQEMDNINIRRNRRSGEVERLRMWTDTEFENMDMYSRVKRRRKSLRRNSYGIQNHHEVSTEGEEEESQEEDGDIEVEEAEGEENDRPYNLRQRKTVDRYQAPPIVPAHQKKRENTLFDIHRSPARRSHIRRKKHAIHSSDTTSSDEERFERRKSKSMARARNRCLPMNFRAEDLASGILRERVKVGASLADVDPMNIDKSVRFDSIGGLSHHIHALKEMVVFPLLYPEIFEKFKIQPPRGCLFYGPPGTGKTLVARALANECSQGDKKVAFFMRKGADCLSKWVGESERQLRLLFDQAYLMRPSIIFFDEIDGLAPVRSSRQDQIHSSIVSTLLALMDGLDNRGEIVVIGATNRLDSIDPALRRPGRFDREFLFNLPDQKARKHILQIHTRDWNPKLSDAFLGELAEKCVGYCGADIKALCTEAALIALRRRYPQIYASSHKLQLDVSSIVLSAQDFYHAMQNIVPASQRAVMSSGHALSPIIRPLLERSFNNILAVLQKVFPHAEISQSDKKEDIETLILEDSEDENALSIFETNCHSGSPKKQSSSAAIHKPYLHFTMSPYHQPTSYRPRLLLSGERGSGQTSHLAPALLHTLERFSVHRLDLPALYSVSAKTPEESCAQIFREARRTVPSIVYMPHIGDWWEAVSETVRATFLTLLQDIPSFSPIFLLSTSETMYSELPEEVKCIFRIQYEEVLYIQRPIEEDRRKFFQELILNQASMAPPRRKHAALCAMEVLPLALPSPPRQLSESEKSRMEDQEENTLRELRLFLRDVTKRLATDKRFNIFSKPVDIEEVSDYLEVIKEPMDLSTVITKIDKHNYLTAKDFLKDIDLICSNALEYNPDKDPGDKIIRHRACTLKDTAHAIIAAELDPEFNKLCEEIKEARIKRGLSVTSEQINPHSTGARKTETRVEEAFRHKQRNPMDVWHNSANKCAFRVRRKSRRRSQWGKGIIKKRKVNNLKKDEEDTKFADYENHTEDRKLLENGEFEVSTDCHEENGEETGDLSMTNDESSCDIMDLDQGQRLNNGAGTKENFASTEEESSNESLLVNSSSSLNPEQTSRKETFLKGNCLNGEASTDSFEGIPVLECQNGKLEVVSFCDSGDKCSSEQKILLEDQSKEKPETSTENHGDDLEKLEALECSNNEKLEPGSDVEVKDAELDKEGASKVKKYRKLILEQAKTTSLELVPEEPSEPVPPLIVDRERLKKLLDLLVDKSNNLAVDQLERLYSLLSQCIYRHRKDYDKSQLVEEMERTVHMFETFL
Chain of Bromodomain-containing protein 2 (P25440 whole entry, looked up): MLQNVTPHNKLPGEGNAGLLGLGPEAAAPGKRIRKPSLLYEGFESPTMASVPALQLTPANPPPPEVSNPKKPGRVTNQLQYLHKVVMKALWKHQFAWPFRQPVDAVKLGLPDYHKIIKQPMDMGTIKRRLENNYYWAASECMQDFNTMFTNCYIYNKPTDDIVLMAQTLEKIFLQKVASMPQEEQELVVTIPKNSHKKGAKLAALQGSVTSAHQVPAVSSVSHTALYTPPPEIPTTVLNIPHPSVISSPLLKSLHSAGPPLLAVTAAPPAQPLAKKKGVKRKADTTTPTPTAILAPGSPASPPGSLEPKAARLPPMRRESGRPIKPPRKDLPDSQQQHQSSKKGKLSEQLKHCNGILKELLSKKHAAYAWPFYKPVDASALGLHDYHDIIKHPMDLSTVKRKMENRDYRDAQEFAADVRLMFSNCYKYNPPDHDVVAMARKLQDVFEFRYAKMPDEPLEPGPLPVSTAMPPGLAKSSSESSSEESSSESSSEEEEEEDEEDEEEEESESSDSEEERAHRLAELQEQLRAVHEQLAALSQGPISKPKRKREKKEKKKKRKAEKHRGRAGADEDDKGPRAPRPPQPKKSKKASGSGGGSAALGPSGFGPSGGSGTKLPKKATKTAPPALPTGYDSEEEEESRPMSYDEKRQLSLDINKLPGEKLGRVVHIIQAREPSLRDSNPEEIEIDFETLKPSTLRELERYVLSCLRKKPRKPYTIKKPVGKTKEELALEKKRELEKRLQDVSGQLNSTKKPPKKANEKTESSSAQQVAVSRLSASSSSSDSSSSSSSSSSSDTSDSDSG

Activity [1]: 71%
Activity [2]: 96%
Activity [3]: 41%
Activity [4]: 44%
Activity [5]: 36%
Kd [7]: > 316 nM
Activity [8]: 47%
Kd [9]: > 316 nM
Activity [10]: 53%
IC50 [11]: > 25100 nM
Kd [12]: > 316 nM
Activity [13]: 0%
Kd [14]: > 316 nM
Activity [15]: 86%
IC50 [16]: 50.1 nM
Activity [17]: 62%
IC50 [18]: 7 nM
SMILES: Cc1nnc2c(NC3CCN(CC(C)(C)F)CC3)cc(C(=O)N3[C@@H]4c5ccccc5C[C@H]3C(=O)N[C@@H]4C(C)C)nn12
Activity [6]: Dose-Dependent Effect

Reference: ChEMBL document CHEMBL5042544, “Discovery of a Potent and Selective ATAD2 Bromodomain Inhibitor with Antiproliferative Activity in Breast Cancer Models” (J Med Chem, 2022)
